How the values were obtained:
[1] = tested on: Candida parapsilosis B66126; test: Antifungal activity in vitro (resazurin susceptibility screen), Inf. D; type: cell-based; settings: Lodderomyces parapsilosis, B66126, Candida parapsilosis B66126; 37 °C, 24 hours, resa time 4 hours
Summary of the method: (§1)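 RPMI-1640/2% glucose/MOPS pH 7.0; 10^3 cfu per well; top conc 64 μM, 2- or 4-fold dilutions from DMSO. Yeasts 24 h 37° C, dermatophytes ≥1 wk 27° C. Resazurin 0.005% added, fluorescence ex 550/em 590 nm vs untreated growth and medium-only controls.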

[2] = tested on: Rhizomucor miehei IHEM13391; test: Antifungal activity in vitro (resazurin susceptibility screen), Inf. K; type: cell-based; settings: Rhizomucor miehei, IHEM13391, Rhizomucor miehei IHEM13391; 37 °C, 48 hours, resa time 17 hours
Summary of the method: as §1

[3] = tested on: Sporothrix schenkii B62482; test: Antifungal activity in vitro (resazurin susceptibility screen), Inf. A; type: cell-based; settings: Sporothrix, B62482, Sporothrix schenkii B62482; 27 °C, 4 days, resa time 24 hours
Summary of the method: as §1

[4] = tested on: Microsporum canis (strain B68128); test: Test D.4.1: activity against M. canis in guinea-pigs after oral treatment for 7 consecutive days; type: in vivo; design: key to semi-quantitative lesion score (mean): lesion score 0–3.5 by severity and size of lesion
Summary of the method: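 Female Duncan-Hartley guinea pigs, scarified depilated dorsum inoculated with 10^6 cfu M. canis spores in honey-water. Compounds in methocel 0.5%/Tween 80 vehicle given by oral gavage once daily for 7 days, starting ~2 h pre-infection; itraconazole reference. Lesions scored semi-quantitatively (0–3.5) on days 3–20 post-infection; mean scores.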

Rhizopus oryzae IHEM5223 = test: Antifungal activity in vitro (resazurin susceptibility screen), Inf. J; type: cell-based; settings: Rhizopus arrhizus, 37 °C, 24 hours, resa time 6 hours
Summary of the method: as §1

Microsporum canis B68128 = test: Antifungal activity in vitro (resazurin susceptibility screen), Inf. B; type: cell-based; settings: Microsporum canis, B68128, Microsporum canis B68128; 27 °C, 9 days, resa time 24 hours
Summary of the method: as §1

[5] = tested on: Aspergillus fumigatus B42928; test: Antifungal activity in vitro (resazurin susceptibility screen), Inf. E; type: cell-based; settings: Aspergillus fumigatus, B42928, Aspergillus fumigatus B42928; 27 °C, 48 hours, resa time 17 hours
Summary of the method: as §1

[6] = tested on: Scedosporium apiospermum IHEM3817; test: Antifungal activity in vitro (resazurin susceptibility screen), Inf. H; type: cell-based; settings: Scedosporium apiospermum, IHEM3817, Scedosporium apiospermum IHEM3817; 37 °C, 48 hours, resa time 17 hours
Summary of the method: as §1

[7] = tested on: Trichophyton mentagrophytes B70554; test: Antifungal activity in vitro (resazurin susceptibility screen), Inf. G; type: cell-based; settings: Trichophyton mentagrophytes, B70554, Trichophyton mentagrophytes B70554; 27 °C, 7 days, resa time 24 hours
Summary of the method: as §1

[8] = tested on: Trichophyton rubrum B68183; test: Antifungal activity in vitro (resazurin susceptibility screen), Inf. C; type: cell-based; settings: Trichophyton rubrum, B68183, Trichophyton rubrum B68183; 27 °C, 7 days, resa time 24 hours
Summary of the method: as §1

CC(F)(F)c1ccc(C2=NCc3c(Cl)cccc3-n3cccc32)cc1 [Compound 4, 7-chloro-4-[4-(1,1-difluoroethyl)phenyl]-6H-pyrrolo[1,2-a][1,4]benzodiazepine]
IC50 [1]: 3090 nM
IC50 [2]: > 64600 nM
IC50 [3]: 12000 nM
semi-quantitative lesion score (mean) ([4]; oral 5 mg/kg once daily for 7 days, 3 DPI): 0
semi-quantitative lesion score (mean) ([4]; oral 5 mg/kg once daily for 7 days, 5 DPI): 0.67
semi-quantitative lesion score (mean) ([4]; oral 5 mg/kg once daily for 7 days, 7 DPI): 1.50
semi-quantitative lesion score (mean) ([4]; oral 5 mg/kg once daily for 7 days, 10 DPI): 2.00
semi-quantitative lesion score (mean) ([4]; oral 5 mg/kg once daily for 7 days, 12 DPI): 2.17
semi-quantitative lesion score (mean) ([4]; oral 5 mg/kg once daily for 7 days, 14 DPI): 1.83
semi-quantitative lesion score (mean) ([4]; oral 5 mg/kg once daily for 7 days, 17 DPI): 1.33
semi-quantitative lesion score (mean) ([4]; oral 5 mg/kg once daily for 7 days, 20 DPI): 1.17
activity compared with the terbinafine group (G2, 10 mg/kg) ([4]; oral 10 mg/kg once daily for 7 days): comparable to G2
semi-quantitative lesion score (mean) ([4]; oral 10 mg/kg once daily for 7 days, 3 DPI): 0
semi-quantitative lesion score (mean) ([4]; oral 10 mg/kg once daily for 7 days, 5 DPI): 0
semi-quantitative lesion score (mean) ([4]; oral 10 mg/kg once daily for 7 days, 7 DPI): 0.33
semi-quantitative lesion score (mean) ([4]; oral 10 mg/kg once daily for 7 days, 10 DPI): 1.00
semi-quantitative lesion score (mean) ([4]; oral 10 mg/kg once daily for 7 days, 12 DPI): 1.50
semi-quantitative lesion score (mean) ([4]; oral 10 mg/kg once daily for 7 days, 14 DPI): 1.50
semi-quantitative lesion score (mean) ([4]; oral 10 mg/kg once daily for 7 days, 17 DPI): 0.50
semi-quantitative lesion score (mean) ([4]; oral 10 mg/kg once daily for 7 days, 20 DPI): 0.33
activity compared with the terbinafine group (G2, 10 mg/kg) ([4]; oral 40 mg/kg once daily for 7 days): remarkably more active than the terbinafine group
semi-quantitative lesion score (mean) ([4]; oral 40 mg/kg once daily for 7 days, 3 DPI): 0
semi-quantitative lesion score (mean) ([4]; oral 40 mg/kg once daily for 7 days, 5 DPI): 0.17
semi-quantitative lesion score (mean) ([4]; oral 40 mg/kg once daily for 7 days, 7 DPI): 0.17
semi-quantitative lesion score (mean) ([4]; oral 40 mg/kg once daily for 7 days, 10 DPI): 0.17
semi-quantitative lesion score (mean) ([4]; oral 40 mg/kg once daily for 7 days, 12 DPI): 0.17
semi-quantitative lesion score (mean) ([4]; oral 40 mg/kg once daily for 7 days, 14 DPI): 0
semi-quantitative lesion score (mean) ([4]; oral 40 mg/kg once daily for 7 days, 17 DPI): 0.17
semi-quantitative lesion score (mean) ([4]; oral 40 mg/kg once daily for 7 days, 20 DPI): 0.17
IC50 (Rhizopus oryzae IHEM5223): > 64600 nM
IC50 (Microsporum canis B68128): 479 nM
IC50 [5]: 2240 nM
IC50 [6]: > 64600 nM
IC50 [7]: 891 nM
IC50 [8]: 234 nM

— patent US9637490B2, “Antifungal 5,6-dihydro-4-[(difluoroethyl)phenyl]-4H-pyrrolo[1,2-α][1,4]benzodiazepine and 4-(difluoroethyl)phenyl-6H-pyrrolo[1,2-α][1,4]benzodiazepine derivatives” (Janssen Pharmaceutica NV, priority 2010, dated 2017)
